Source: US11679107B2 (Eisai R&D Management Co., Ltd., priority 2018, dated 2023)
Read-outs that look alike come from different tables or passages of the source.

Assays:
SF3b complexes = biological target: T1, SF3b complexes (Homo sapiens, UniProt O75533+Q7RTV0); experiment: Scintillation proximity assay (SPA) with [3H]-labelled pladienolide probe; assay type: binding; settings: SF3B1 (WT); geometric mean; read-out: SPA-ATS GMean IC50 (nM) SF3B1 (WT)
T1 construct: endogenous in cells; host or cells: Nuclear extracts; A HeLa S3 extract preparation is described for the in vitro splicing assay
Procedure, shortened: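 SF3b complexes captured from nuclear extracts on anti-SF3B1 antibody SPA beads; test compounds pre-incubated 30 min before 2.5 nM [3H]-pladienolide probe added, then 30 min incubation. Bound probe read by scintillation; values from non-linear regression of concentration–response curves.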

[1] = test system: Ad2 variant pre-mRNAs spliced in HeLa S3 nuclear extracts; experiment: In vitro splicing assay (IVS), RT-qPCR of spliced product; assay type: biochemical; settings: for IC50: geometric mean; for Ratio Ad2.1/2.2: ratio of IVS IC50 Ad2.1 to Ad2.2
Procedure, shortened: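 Read-out is one-step TaqMan RT-qPCR of spliced Ad2 mRNA with Ftz as reference, normalized to DMSO and fit by non-linear regression. Reactions held HeLa S3 nuclear extract, 2 ng Ad2-derived pre-mRNA and test compound, with 15 min preincubation. Splicing was started with ATP-containing activation buffer and run 90 min at 30 °C.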

[2] = test system: NCI-H1568 cells (high MCL1); experiment: Cell proliferation and viability, CellTiter-Glo, 72 hours; assay type: cell-based; settings: for GI50: geometric mean
Procedure, shortened: (§1)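 ATP luminescence (CellTiter-Glo) was measured 72 h after treatment with compound at 10 μM–100 pM (11 points, half-log) in 0.1% DMSO. The Panc line was grown in RPMI-1640 plus insulin and 15% FBS, the other in 10% FBS. Data were normalised to time zero and vehicle controls, where −100% is cidal and 0% static.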

[3] = test system: Panc 05.04 cells (SF3b K700E mutant); experiment: as above; assay type: cell-based; settings: for GI50: geometric mean
Procedure, shortened: as §1

[4] = Ad2.1 pre-mRNA substrate, read-out: qPCR-IVS-ATS GMean IC50 (nM) Ad2.1
[5] = Ad2.2 pre-mRNA substrate, read-out: qPCR-IVS-ATS GMean IC50 (nM) Ad2.2
[6] = 72 h, NCIH1568.1, -100% = cidal, 0% = static, 100% = uninhibited growth
[7] = NCI-H1568, read-out: CTGlo-ATS GMean GI50 (nM) 72 h NCIH1568.1, 72 h, NCIH1568.1
[8] = 72 h, PANC0504.1, -100% = cidal, 0% = static, 100% = uninhibited growth
[9] = Panc 05.04, read-out: CTGlo-ATS GMean GI50 (nM) 72 h PANC0504.1, 72 h, PANC0504.1
[10] = NCI-H1568, read-out: CTGlo-ATS GMean GI50 (nM) 72 h NCIH1568.1, NCIH1568.1 cells, 72 h
[11] = NCIH1568.1 cells, 72 h, −100% cidal, 0% static, 100% maximal growth
[12] = PANC0504.1 cells, 72 h, −100% cidal, 0% static, 100% maximal growth
[13] = Panc 05.04, read-out: CTGlo-ATS GMean GI50 (nM) 72 h PANC0504.1, PANC0504.1 cells, 72 h
[14] = NCI-H1568, 72 h, read-out: CTGlo-ATS GMean GI50 (nM) 72 h NCIH1568.1, NCIH1568.1 cells, 72 h
[15] = Panc 05.04, 72 h, read-out: CTGlo-ATS GMean GI50 (nM) 72 h PANC0504.1, PANC0504.1 cells, 72 h

SMILES	IC50 (SF3b complexes) [nM]	IC50 [1, 4] [nM]	IC50 [1, 5] [nM]	Ratio Ad2.1/2.2 [1]	CTGlo-ATS Mean MinResponse % 72 h NCIH1568.1 [2, 6] [%]	GI50 [2, 7] [nM]	CTGlo-ATS Mean MinResponse % 72 h PANC0504.1 [3, 8] [%]	GI50 [3, 9] [nM]	GI50 [2, 10] [nM]	CTGlo-ATS Mean MinResponse % 72 h NCIH1568.1 [2, 11] [%]	CTGlo-ATS Mean MinResponse % 72 h PANC0504.1 [3, 12] [%]	GI50 [3, 13] [nM]	GI50 ([2]; NCI-H1568, 72 h, read-out: CTGlo-ATS GMean GI50 (nM) 72 h NCIH1568.1, 72 h, NCIH1568.1) [nM]	GI50 ([3]; Panc 05.04, 72 h, read-out: CTGlo-ATS GMean GI50 (nM) 72 h PANC0504.1, 72 h, PANC0504.1) [nM]	GI50 [2, 14] [nM]	GI50 [3, 15] [nM]
C/C(=C\c1cc(F)cc(N2CCOCC2)c1)[C@H]1OC(=O)C[C@H](O)CC[C@H](C)[C@@H](OC(=O)N2CCC(N(C)C)C2)/C=C/[C@@H]1C (stereo in doubt) [Compound 243, [(2S,3S,4E,6R,7S,10R)-2-[(E)-1-(3-fluoro-5-morpholin-4-ylphenyl)prop-1-en-2-yl]-10-hydroxy-3,7-dimethyl-12-oxo-1-oxacyclododec-4-en-6-yl] (3S)-3-(dimethylamino)pyrrolidine-1-carboxylate]	3.59	98.4	38.5	2.553	−71.678	10.6	−92.290	10.4	–	–	–	–	–	–	–	–
C/C(=C\c1cc(F)cc(N2CCOCC2)c1)[C@H]1OC(=O)C[C@H](O)CC[C@H](C)[C@@H](OC(=O)N(C)C2CCCN(C)C2)/C=C/[C@@H]1C (some centres unmarked) [Compound 37]	2.27	85.8	20.2	–	–	–	–	–	4.75	−82.247	−86.134	4.61	–	–	–	–
C/C(=C\c1cc(F)cc(N2CCOCC2)c1)[C@H]1OC(=O)C[C@H](O)CC[C@H](C)[C@@H](OC(=O)N2CCC(N3CCCCC3)CC2)/C=C/[C@@H]1C [Compound 262, [(2S,3S,4E,6R,7S,10R)-2-[(E)-1-(3-fluoro-5-morpholin-4-ylphenyl)prop-1-en-2-yl]-10-hydroxy-3,7-dimethyl-12-oxo-1-oxacyclododec-4-en-6-yl] 4-piperidin-1-ylpiperidine-1-carboxylate]	5.66	4100	51.6	79.467	−65.862	–	−91.709	–	–	–	–	–	41.7	29.3	–	–
C/C(=C\c1ccc(C)c(S(=O)(=O)N2CCCC2)c1)[C@H]1OC(=O)C[C@H](O)CC[C@H](C)[C@@H](OC(=O)N2CCN(C)CC2)/C=C/[C@@H]1C [Compound 203, [(2S,3S,4E,6R,7S,10R)-10-hydroxy-3,7-dimethyl-2-[(E)-1-(4-methyl-3-pyrrolidin-1-ylsulfonylphenyl)prop-1-en-2-yl]-12-oxo-1-oxacyclododec-4-en-6-yl] 4-methylpiperazine-1-carboxylate]	10.1	14400	69.7	207.149	−36.664	47.3	−94.627	45	–	–	–	–	–	–	–	–
C/C(=C\c1cccc(S(=O)(=O)N2CCNCC2)c1)[C@H]1OC(=O)C[C@H](O)CC[C@H](C)[C@@H](OC(=O)N2CCN(C)CC2)/C=C/[C@@H]1C [Compound 93]	24.7	219	41.6	–	–	–	–	–	73.8	−57.108	−97.726	109	–	–	–	–
C/C(=C\c1cc(F)cc(N2CCN(C(=O)CO)CC2)c1)[C@H]1OC(=O)C[C@H](O)CC[C@H](C)[C@@H](OC(=O)N2CCN(C)CC2)/C=C/[C@@H]1C [Compound 135]	3.67	14.9	14.9	–	–	–	–	–	2.41	−84.225	−90.575	2.46	–	–	–	–
C/C(=C\c1cc(F)c2c(c1)nnn2CC1CC1)[C@H]1OC(=O)C[C@H](O)CC[C@H](C)[C@@H](OC(=O)N2CCN(C)CC2)/C=C/[C@@H]1C [Compound 139]	4.32	> 25000	93.2	–	–	–	–	–	142	−61.022	−21.195	240	–	–	–	–
C/C(=C\c1cc(F)cc(N2CCOCC2)c1)[C@H]1OC(=O)C[C@H](O)CC[C@H](C)[C@@H](OC(=O)N2CCN(C)CC2)/C=C/[C@@H]1C [Compound 3]	1.74	18.6	10.3	–	–	–	–	–	–	−78.460	−87.809	–	–	–	2.42	2.96
C/C(=C\c1ccc2c(C)nn(C)c2c1)[C@H]1OC(=O)C[C@H](O)CC[C@H](C)[C@@H](OC(=O)N2CCN(C)CC2)/C=C/[C@@H]1C [Compound 50]	1.46	17900	60.2	–	–	–	–	–	43.6	−65.255	−82.642	28.3	–	–	–	–
C/C(=C\c1cc(F)cc(N2CCOC[C@@H]2CO)c1)[C@H]1OC(=O)C[C@H](O)CC[C@H](C)[C@@H](OC(=O)N2CCN(C)CC2)/C=C/[C@@H]1C [Compound 77]	1.78	16.1	13.3	–	–	–	–	–	1.79	−82.189	−86.524	3.9	–	–	–	–
C/C(=C\c1cccc(S(=O)(=O)NC(C)(C)CO)c1)[C@H]1OC(=O)C[C@H](O)CC[C@H](C)[C@@H](OC(=O)N2CCN(C)CC2)/C=C/[C@@H]1C [Compound 201, [(2S,3S,4E,6R,7S,10R)-10-hydroxy-2-[(E)-1-[3-[(1-hydroxy-2-methylpropan-2-yl)sulfamoyl]phenyl]prop-1-en-2-yl]-3,7-dimethyl-12-oxo-1-oxacyclododec-4-en-6-yl] 4-methylpiperazine-1-carboxylate]	5.64	620	17.5	35.485	−48.055	27.5	−91.697	40.9	–	–	–	–	–	–	–	–
C/C(=C\c1ccc2ccnc(O)c2c1)[C@H]1OC(=O)C[C@H](O)CC[C@H](C)[C@@H](OC(=O)N2CCN(C)CC2)/C=C/[C@@H]1C [Compound 127]	19.1	> 25000	452	–	–	–	–	–	–	−18.734	11.995	–	–	–	835	1070
C/C(=C\c1cccc(S(=O)(=O)N2CCC(F)(F)CC2)c1)[C@H]1OC(=O)C[C@H](O)CC[C@H](C)[C@@H](OC(=O)N2CCN(C)CC2)/C=C/[C@@H]1C [Compound 202, [(2S,3S,4E,6R,7S,10R)-2-[(E)-1-[3-(4,4-difluoropiperidin-1-yl)sulfonylphenyl]prop-1-en-2-yl]-10-hydroxy-3,7-dimethyl-12-oxo-1-oxacyclododec-4-en-6-yl] 4-methylpiperazine-1-carboxylate]	14.1	4470	25.2	177.387	−59.083	29.4	−93.824	24.7	–	–	–	–	–	–	–	–
CC[C@H](O)[C@@H](C)CN1CCN(c2cc(F)cc(/C=C(\C)[C@H]3OC(=O)C[C@H](O)CC[C@H](C)[C@@H](OC(=O)N4CCN(C)CC4)/C=C/[C@@H]3C)c2)CC1 [Compound 71]	3.71	29.7	18.9	–	–	–	–	–	6.39	−92.527	−68.599	11.5	–	–	–	–
C/C(=C\c1cc(F)cc(N(C)C2COC2)c1)[C@H]1OC(=O)C[C@H](O)CC[C@H](C)[C@@H](OC(=O)N2CCN(C)CC2)/C=C/[C@@H]1C [Compound 169]	1.43	96.6	19.8	–	–	–	–	–	8.26	−66.086	−90.232	8.9	–	–	–	–
